In US20140037630A1, “METHODS FOR TREATING MICA-RELATED DISORDERS” (DANA-FARBER CANCER INSTITUTE, INC., priority 2006, published 2014):

Tests used:
U226 MM cells [1] = experiment: Immunoblotting for DNA damage response (phospho-ATM, phospho-chk-2) in U226 MM cells; assay type: cell-based
Description: (§1) Antibodies used for immunoblotting were: anti-phospho-ATM (ser 1981), anti-ATM, anti-phospho-ATR (ser 428), anti-ATR, anti-phospho-chk-1 (ser 280) and anti-phospho-chk-2 (thr 68) (Cell Signaling, Beverly, Mass.). Immunoblotting was performed according to standard methods. In some experiments, U226 cells were transiently transfected with expression plasmids encoding human chk-1 shRNA (5′-[…]-3′) (SEQ ID NO: 1), chk-2 shRNA, or ATM shRNA (Upstate cell signaling, Lake Placid, N.Y.) according to the manufacturer's instructions. The efficiency of gene knockdown was 50%-90% as assessed by immunoblotting.
(§2) U226, RPMI, and MM-1R cells were obtained from the American Type Culture Collection (Manassas, Va.), and MM-1S cells were a gift of Dr. Steven Rosen (Northwestern University). […] U226-MICA cells were generated with retroviral mediated gene transfer according to standard methods.
(§3) The effect of the proteasome inhibitor Bortezomib, a MM therapeutic, on MICA expression and the DNA damage response pathway was analyzed. U226 and RPMI-8226 MM cells were treated with 20 μM Bortezomib, 250 μg/ml dexamethasone or 10 μg/ml aphidicolin (a DNA polymerase inhibitor that served as a control for inducing DNA damage) for the indicated times. Cell lysates were prepared and evaluated for phospho-ATM (ser 1981), ATM, phospho-chk-2 (thr 68) or chk-2 by immunoblotting. […]

RPMI-8226 MM cells = experiment: Immunoblotting for DNA damage response (phospho-ATM, phospho-chk-2) in RPMI-8226 MM cells; assay type: cell-based; details: 20 μM Bortezomib or 250 μg/ml dexamethasone
Description: as §1, §2, §3

MM-1S cells = experiment: Immunoblotting for phospho-ATM and total ATM in MM-1S cells; assay type: cell-based; details: 10 μM Bortezomib
Description: as §1, §2, §3

U226 MM cells [2] = experiment: Surface MICA expression by flow cytometry in U226 MM cells; assay type: cell-based; details: 20 μM Bortezomib overnight
Description: (§4) PBMCs and bone marrow aspirates were processed by Ficoll-Hypaque (Pharmacia) density-gradient centrifugation. PBMCs from healthy donors or patients were incubated for 48 hours in patient or control sera (10%) in complete media and stained with PE-conjugated anti-NKG2D mAb (Pharmingen), FITC-conjugated anti-CD3 mAb (BD-Biosciences Pharmingen), and either PC5-conjugated anti-CD8 mAb or PC5-conjugated anti-CD56 mAb (Beckman-Coulter). In Examples 9-11, antibodies used, in addition to the above, were: FITC-conjugated anti-CD138, PE-conjugated anti-MICA mAb (R&D Systems), and anti-ERp5 (Axxora Platform) followed by FITC-conjugated anti-rabbit (Southern Biotech). Cells were analyzed with a FW501 flow cytometer (Beckman-Coulter) and FlowJo software (Tree Star). Cells were gated for CD3^+CD8^+ T cells and CD3^−CD56^+ NK cells. […] Cells were analyzed with a FACScan cytometer (Becton Dickinson). […]
(§5) For the experiment shown in FIG. 16B, the indicated MM cells were treated with 20 μM Bortezomib overnight and surface MICA expression was determined with flow cytometry. […] IFN-γ production was measured by ELISPOT against dendritic cells loaded with U226 MM cells. […]

MM-1R MM cells = experiment: Surface MICA expression by flow cytometry in MM-1R MM cells; assay type: cell-based; details: 20 μM Bortezomib overnight
Description: as §4, §5

U226 MM cells [3] = experiment: Dendritic cell cross-presentation of MGUS sera-coated treated U226 MM cells, IFN-γ ELISPOT of CD8+ T cells; assay type: cell-based; details: drug treated U226 MM cells coated with MGUS sera; CD8+ T cells stimulated seven days
Description: Donor peripheral blood mononuclear cells (PBMCs) were incubated in 10% patient sera as described above, and NK cells, isolated by magnetic cell sorting (Miltenyl Biotech), were tested in four-hour lysis assays against ^51Cr-labeled K562 target cells. The spontaneous release in all assays was less than 20% of the maximum. Dendritic cells (generated from adherent PBMCs with GM-CSF and IL-4) were co-cultured with opsonized tumor cells (1:1 ratio) for 20 hours, matured with LPS (Sigma-Aldrich) for 24 hours, and then used to stimulate autologous CD8+ T cells, isolated by magnetic cell sorting, for seven days. Antigen specific IFN-γ production was then determined by ELISPOT. For enzyme-linked immunospot (ELISPOT) analysis, ImmunoSpotplates (Cellular Technology) were coated overnight at 37° C. with 10 μg/ml anti-IFN-γ mAb (Mabtech). […] Spots were developed by using BCIP/NBT as a color development substrate and counted with an ImmunoSpot microplate reader (Cellular Technology, Cleveland).
as §5

MICA = experiment: Anti-MICA antibody ELISA with recombinant MICA protein on longitudinal patient sera; assay type: in vivo, human; details: patient MEL15; sera diluted 1:500
Description: (§6) Anti-MICA antibodies and sMICA levels were measured with ELISAs using recombinant MICA protein (ProSpec-Tany TechnoGene Inc.) and anti-human MICA monoclonal antibodies (R&D Systems). The lower limits of the assay were 90 pg/ml. The Wilcoxon rank sum test with no adjustments for multiple comparisons was used to analyze the differences among the normal donors, MGUS, and MM patients. For complement assays, 293T and 293-T-MICA cells, generated by retroviral mediated gene transfer were incubated with patient sera and human complement (Sigma-Aldrich) and lysis quantified using MTT (Roche Diagnostic GmbH).
The humoral response to MICA was analyzed by an ELISA with recombinant MICA protein as described in Example 1. Longitudinal sera samples from MEL15 were diluted 1:500. Downward arrows denote tumor cell vaccinations and upward arrows depict infusions of MDX-010.
Patient M37 entered study with visceral melanoma metastases, which were completely resected for vaccine manufacture. […] Subsequent isolated recurrences were processed into additional vaccines, whereas the patient succumbed to progressive disease 4.5 years after study entry.

sMICA = sMICA ELISA on longitudinal MEL15 sera; assay type: in vivo, human; details: patient MEL15 sera
Description: as §6
Soluble MICA (sMICA) levels were also analyzed. […] The reduction in sMICA was confirmed with immunoblotting analysis of MEL15 sera using an anti-MICA monoclonal antibody.

| Molecule | ATM phosphorylation (ser 1981) (U226 MM cells [1]; 10 μM Bortezomib) | phosphorylation of ATM (ser 1981) and chk-2 (thr 68) (U226 MM cells [1]; 20 μM Bortezomib or 250 μg/ml dexamethasone) | phosphorylation of ATM (ser 1981) and chk-2 (thr 68) (RPMI-8226 MM cells) | ATM (total ATM, immunoblot) (MM-1S cells) | surface expression of MICA (U226 MM cells [2]) | surface expression of MICA (MM-1R MM cells) | dendritic cell cross-presentation of treated U226 cells by MGUS sera (IFN-γ ELISPOT) (U226 MM cells [3]) | anti-MICA antibody titers (MICA) | sMICA levels (sMICA) |
| --- | --- | --- | --- | --- | --- | --- | --- | --- | --- |
| CC(C)C[C@H](NC(=O)[C@H](Cc1ccccc1)NC(=O)c1cnccn1)B(O)O [Bortezomib] | induced ATM phosphorylation | triggered the rapid phosphorylation | but not RPMI MM cells | stimulated the degradation of ATM | increased the surface expression of MICA | increased the surface expression of MICA | as efficiently as U226-MICA cells | – | – |
| MDX-010: fully human anti-CTLA-4 blocking monoclonal antibody | – | – | – | – | – | – | – | elevated levels of anti-MICA antibodies | sharp decrease |
